What all share (test): growth of human tumour cells (NCI), 48 h
In experiment [1] the test system is SNB-78 CNS.
Experiment [2] relates to HCT-116 colon.
Experiment [3] relates to SK-MEL-28 melanoma.
For experiment [4], the system named is KM20L2 colon.
Experiment [5] has as its system HOP-92 NSCLC.
Experiment [6] concerns SR leukemia.
The subject of experiment [7] is DLD-1 colon.
The test system of experiment [8] is TK-10 renal.
In experiment [9] the test system is U251 CNS.

Molecules are shown by their SMILES.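 Five compound concentrations were applied to cells in 96-well plates for 48 hours; endpoints were derived by simple linear interpolation of the resulting dose-response curve. TGI: concentration producing complete growth inhibition.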 Where only a bound is given, the exact number is not on record here.

For the compound `c1ccc2c(c1)CCCC/C2=N/OCC1CO1` (stereo unspecified), the TGI is greater than 100 µM in [1]; greater than 100 µM in experiment [2]; greater than 100 µM in [3]; greater than 100 µM in [4]; 69.2 µM in experiment [5]; greater than 100 µM in [6]. Besides, the TGI in [7], in experiment [8] and in experiment [9] was greater than 100 µM each time.

For `O=C(O)/C=C\C(=O)Nc1ccc(S(=O)(=O)c2ccc(NC(=O)/C=C\C(=O)O)cc2)cc1`, the TGI in experiment [1], in experiment [2], in experiment [3], in experiment [4], in experiment [5] and in experiment [6] was greater than 100 µM throughout. The TGI in [7], in experiment [8] and in [9] was greater than 100 µM each time.

Turning to `O=C1c2cccc(O)c2C(=O)c2c(O)cc(CO)cc21`, the TGI in [1], in [2], in [3], in experiment [4], in experiment [5] and in experiment [6] was greater than 100 µM in each case. In addition, the TGI in [7], in [8] and in experiment [9] was greater than 100 µM throughout.

As to `O=C(O)CCCCCCCCC(=O)O`, the TGI in experiment [1], in experiment [2], in [3], in [4], in experiment [5] and in experiment [7] was greater than 500 µM throughout. For the same compound, in [9], the TGI was greater than 500 µM.

Regarding `CSc1nc2c(ncn2C2OC(CO)C(O)C(O)C2O)c(=O)[nH]1` (stereo unspecified), the TGI in [1], in [2], in experiment [3], in experiment [4], in experiment [5] and in experiment [7] was greater than 100 µM each time. Moreover, in experiment [9], the TGI was greater than 100 µM.

As for `O=C(NN1C(=O)CSC1c1cccc(F)c1)c1ccncc1` (stereo unspecified), the TGI in experiment [1], in experiment [3], in experiment [4], in experiment [8] and in experiment [9] was greater than 100 µM throughout.

The record behind these values is PubChem BioAssay (NCI).
